US9445596B2, “Small molecule compounds for the control of nematodes” (California Institute of Technology, priority 2011, dated 2016)
Entries after “also recorded” stand apart in the source; their conditions may differ.

Tests used:
ASI sensory neurons = conditions: McGrath et al., Nature 2011; cited from earlier work
[1] = test system: C. elegans hermaphrodites and males; test: Spot attraction assay; type: in vivo
Procedure: The spot attraction assays were conducted according to a previously reported method (Pungaliya et al., PNAS 106:7708-13 (2009); Srinivasan et al., Nature 454:1115-18 (2008), which are hereby incorporated by reference in their entirety). For both C. elegans hermaphrodites and males, 50-60 worms were harvested daily at the fourth larval stage (L4) and stored segregatedly by sex at 20° C. overnight, to be used as young adults the following day. For the competition experiments, two conditions were used: 120 nM ascr#3 and 10 nM icas#3 (Condition 1), or 12 μM ascr#3 and 1 μM icas#3 (Condition 2) in water containing 10% ethanol. Aliquots were stored at −20° C. in 20 μL tubes. 10% ethanol in water was used as control.
Attraction assays with hbas#3 were conducted as previously reported (Srinivasan et al., Nature 454:1115-18 (2008); Pungaliya et al., Proc. Natl. Acad. Sci. U.S.A. 106:7708-13 (2009), which are hereby incorporated by reference in their entirety). For the attraction assays, 50-60 hermaphrodite worms were harvested daily at the early fourth larval stage (L4) and stored at 20° C. overnight to be used as young adults the following day. Hbas#3 was dissolved in water containing 10% ethanol. Aliquots were stored at −20° C. in 20 μL tubes. 10% ethanol in water was used as control.

[2] = test system: C. elegans hermaphrodites; test: Quadrant chemotaxis assay; type: in vivo; conditions: for chemotaxis of hermaphrodites: 1 pM, all tested strains
Procedure: Chemotaxis to both non-indole and indole ascarosides was assessed on 10 cm four-quadrant petri plates (Wicks et al., Dev. Biol. 221:295-307 (2000), which is hereby incorporated by reference in its entirety). Each quadrant was separated from adjacent ones by plastic spacers (FIG. 1B). Pairs of opposite quadrants were filled with nematode growth medium (NGM) agar containing either indole ascarosides or non-indole ascarosides at different concentrations. Animals were washed gently in a S-basal buffer, placed in the center of a four-quadrant plate with ascarosides in alternating quadrants, and scored after 15 minutes and 30 minutes. A chemotaxis index was calculated as: (the number of animals on ascaroside quadrants minus the number of animals on buffer quadrants)/(total number of animals).
Chemotaxis to hbas#3 was assessed on 10 cm four-quadrant petri plates (Wicks et al., Dev. Biol. 221:295-307 (2000), which is hereby incorporated by reference in its entirety). Each quadrant was separated from adjacent ones by plastic spacers. Pairs of opposite quadrants were filled with nematode growth medium (NGM) agar containing different concentrations of hbas#3. Animals were washed gently in an S-basal buffer and placed in the center of a four-quadrant plate with ascarosides in alternating quadrants, and scored after 15 minutes and 30 minutes. A chemotaxis index was calculated as: (the number of animals on ascaroside quadrants minus the number of animals on buffer quadrants)/(total number of animals).

C. elegans = test: Aggregation assay; type: in vivo
Procedure: Aggregation behavior of worms was measured using assays reported in de Bono & Bargmann, Cell 94:679-89 (1998), which is hereby incorporated by reference in its entirety. Aggregation assays were conducted on standard NGM plates. Plates containing indole ascarosides were made by adding the indole ascaroside stock solution to the NGM media before they were poured onto the plates. These plates were dried at room temperature for 2 to 3 days. Control plates were treated similarly, except that ethanol solutions instead of icas solutions were added to the plates, corresponding to the amount of ethanol introduced via the icas solutions. Final ethanol concentrations of the plates were below 0.1% for all conditions. After drying, both control plates and plates containing indole ascarosides were seeded with 150 μl of an overnight culture of E. coli OP50 using a micropipette, and were allowed to dry for 2 days at room temperature. For “low worm density” experiments, 20 worms were placed onto the lawn and left at 20° C. for 3 hours. For “high worm density” experiments, approximately 120 worms were placed onto the bacterial lawn and left at 20° C. for 3 hours. Aggregation behavior was quantified as the number of animals that were in touch with two or more animals at greater than 50% of their body length.

[3] = test system: C. elegans hermaphrodites; test: Measurement of locomotory parameters (automated worm tracking); type: in vivo
Procedure: Reversal frequency and velocity were measured using an automated worm-tracking system (Pungaliya et al., PNAS 106:7708-13 (2009); Srinivasan et al., Nature 454:1115-18 (2008), which are hereby incorporated by reference in their entirety).

ASK neurons = test: Calcium imaging (G-CaMP), ASK neurons; type: in vivo, C. elegans; conditions: 1 pM to 1 μM
Excerpt: (§1) Transgenic lines that express the genetically encoded Ca^2+ sensor in ASK (kyEx2866) and AIA (kyEx2916) (Macosko et al., Nature 458:1171-75 (2009), which is hereby incorporated by reference in its entirety) were used for calcium imaging. Young adults or adult worms were inserted into an “Olfactory chip” microfluidic device (Chronis et al., Nat. Methods 4:727-31 (2007), which is hereby incorporated by reference in its entirety). Dilutions of icas#3 were done with S-basal buffer (with no cholesterol). As stock solutions of icas#3 contained small amounts of ethanol, equivalent amounts of ethanol were added to the S-basal control flow.
(§2) Imaging was conducted using an inverted Zeiss microscope equipped with an Andor camera. Exposure time for image acquisition was 300 milliseconds. Before imaging the ASK neuron, the worm was exposed to blue light for 3 minutes as ASK responds to the blue light itself. […] Movies were analyzed using custom-made Matlab scripts. The first peak of fluorescence immediately after exposure to buffer or icas#3 was chosen for calculating the average change in fluorescence upon exposure to either buffer or icas#3. The value for this maximum was then subtracted from the mean fluorescence during the 5 seconds before the delivery of icas#3/buffer (corresponding to the region between 5 to 10 seconds in FIG. 2D).

AIA interneurons = test: Calcium imaging (G-CaMP), AIA interneurons; type: in vivo, C. elegans
Excerpt: as §1, §2

[4] = social wild-type strains (RC301 and CB4856) and npr-1(ad609) hermaphrodites
[5] = ASK-ablated hermaphrodites on icas#3 plates

SMILES: C[C@@H]1O[C@@H](OCCC(=O)O)[C@H](O)C[C@H]1O [ascr#5]
- calcium transients in the ASI sensory neurons (ASI sensory neurons): does not elicit calcium transients

SMILES: C[C@H](CCCC/C=C/C(=O)O)O[C@@H]1O[C@@H](C)[C@H](OC(=O)c2c[nH]c3ccccc23)C[C@H]1O [icas#3]
- attraction in the spot attraction assay ([1]; 1 pmol, N2 hermaphrodites and him-5 males): attractive to both C. elegans sexes
- attraction after ablation of both ASI and ASK neurons ([1]; ASI- and ASK-ablated hermaphrodites): did not result in a more significant loss of attraction compared to ASK ablation alone
- attraction after ablation of the ASI neurons ([1]; ASI-ablated hermaphrodites): no significant effect
- attraction of AIA-deficient worms ([1]; MEC-4 expressed in AIA interneuron): did not show any attraction
- attraction of daf-22 hermaphrodites ([1]; daf-22 hermaphrodites): attracted; also recorded: as strongly as N2 worms
- attraction after ablation of ASK sensory neurons ([1]; hermaphrodites lacking ASK neurons): near complete loss of attraction
- attraction in the spot attraction assay ([1]; high concentrations, males and hermaphrodites): attracted both males and hermaphrodites
- attraction of hermaphrodites ([1]; low concentrations, N2 hermaphrodites): strongly attractive to hermaphrodites
- attraction of males ([1]; low concentrations, males): no longer attracted
- attraction of social hermaphrodites [1, 4]: attracted; also recorded: strongly attracted
- attraction after ablation of the RMG interneuron ([1]; wild-type (N2) and ncs-1::gfp hermaphrodites, RMG ablated): does not affect attraction; also recorded: did not affect icas#3 response
- chemotaxis of hermaphrodites ([2]; after 15 minutes): attracted
- chemotaxis of hermaphrodites ([2]; after 30 minutes): attracted
- lowest concentration resulting in strong attraction of hermaphrodites (as low as) ([2]; both in the presence and absence of food): 1 pM
- response of daf-22 hermaphrodites ([2]; daf-22 hermaphrodites): as strongly as N2 worms
- attraction of social hermaphrodites [2, 4]: strongly attracted
- increase in aggregation of N2 hermaphrodites (C. elegans; high worm density (120 worms per 5 cm plate)): ≤ 3 fold
- average clump size (C. elegans; icas#3-mediated aggregation): 3-5 worms
- concentrations at which active as hermaphrodite attractants and aggregation signals (C. elegans; in vivo): femtomolar to picomolar
- concentrations that induce maximal aggregation (C. elegans; in vivo): 1 to 10 pM
- lowest concentration with very strong increase in aggregation (as low as) (C. elegans; low worm density (20 worms per 5 cm plate), solitary and social hermaphrodites): 10 fM
- increase in aggregation of N2 hermaphrodites (C. elegans; low worm density, 1 pM): ≤ 4 fold
- aggregation of daf-22 hermaphrodites compared with N2 (C. elegans; low worm density, 1 pM and 10 pM): less aggregation than N2 worms at 1 pM icas#3 but not at 10 pM icas#3
- aggregation of hermaphrodites lacking the ASK neurons (C. elegans; low worm density, any of the tested concentrations): do not aggregate; also recorded: did not aggregate
- aggregation of npr-1(ad609) hermaphrodites (C. elegans; low worm density, over the entire tested concentration range, without a drop off at higher concentrations): increased aggregation
- aggregation at 1 nM (C. elegans; low worm density, social strain CB4856, 1 nM): not significantly different from the control
- concentration of maximal aggregation (C. elegans; low worm density, social strain CB4856, bell-shaped response curve): 1 pM
- aggregation of him-5 males (C. elegans; plates containing 100 fM or 100 pM): significantly increased
- worm velocity ([3]; 1-10 pM): not significantly reduced
- forward velocity of ASK-ablated hermaphrodites [3, 5]: do not display reduced forward velocity
- reversal frequency of ASK-ablated hermaphrodites [3, 5]: does not increase; also recorded: neither increased reversal frequency
- mean stopped duration ([3]; aggregation-inducing concentrations, N2 hermaphrodites): strongly increase mean stopped duration
- Ca^2+ transients in ASK neurons (ASK neurons): no detection of Ca^2+ transients
- G-CaMP fluorescence signals in AIA interneurons (AIA interneurons; 1 μM): induces G-CaMP fluorescence signals
- G-CaMP fluorescence in the AIA neurons (AIA interneurons; in vivo): significantly increased G-CaMP fluorescence
